Tested on: Hsp70 secretion from UC-MSCs
Test: Hsp70 secretion from cultured UC-MSCs exposed to LiCl (immunoassay)
Format: cell-based, human
Conditions: 200 micromolar LiCl; medium collected 96 hours later; p<0.05
Method: FIG. 7 is a graph showing the secretion of heat shock protein 70 (Hsp70) from cultured UC-MSCs (e.g., ALLORX STEM CELLS®) and the effects of increasing concentrations of lithium chloride (LiCl) on Hsp70 secretion.
UC-MSCs were plated at 5,000 cells/cm^2 in T-25 flasks and cultured until confluence was 80-90%. The cells were then exposed to the LiCl concentrations shown on the x axis and the medium was collected 96 hours later and assayed by immunoassay for Hsp70. […] Since Hsp70 mediates cellular protection as a chaperone molecule and through antiapoptotic mechanisms (refs), its enhanced secretion from MSCs (possible through inclusion in exosomes Ref) may reflect mechanisms of stem cell activation by GSK-3p inhibition in conjunction with HDAC inhibition (e.g., see U.S. application Ser. No. 17/239,513 which is incorporated by reference). This effect is a possible mode of action of the therapy proposed by the present disclosure.

SMILES: [Cl-].[Li+] [LiCl, lithium chloride]
- secretion of Hsp70: significant increased secretion

Source: patent publication US20250205286A1, “COMPOSITIONS, REAGENTS, AND METHODS FOR TREATING PITT-HOPKINS SYNDROME” (Vitro Biopharma, Inc., priority 2022, published 2025)
